Source: PubChem BioAssay (NCI)
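Test compounds were applied to cells in 96-well plates for 48 hours at 5 doses. TGI is the concentration that stops growth completely.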

Key:
Assay in all cases: inhibition of tumour cell growth, NCI panel, 48 h
[1] = tested on: A498 renal
[2] = tested on: UO-31 renal
[3] = tested on: HCT-15 colon
[4] = tested on: RPMI-8226 leukemia
[5] = tested on: MDA-MB-231 breast
[6] = tested on: COLO 205 colon
[7] = tested on: TK-10 renal
[8] = tested on: HOP-62 NSCLC
[9] = tested on: OVCAR-4 ovarian
[10] = tested on: SK-MEL-2 melanoma
[11] = tested on: MCF7 breast
[12] = tested on: LOX IMVI melanoma
[13] = tested on: SK-OV-3 ovarian
[14] = tested on: IGROV1 ovarian
[15] = tested on: SF-268 CNS
[16] = tested on: MDA-N
[17] = tested on: BT-549 breast
[18] = tested on: HCC-2998 colon
[19] = tested on: HL-60(TB) leukemia

| Compound | TGI [1] | TGI [2] | TGI [3] | TGI [4] | TGI [5] | TGI [6] | TGI [7] | TGI [8] | TGI [9] | TGI [10] | TGI [11] | TGI [12] | TGI [13] | TGI [14] | TGI [15] | TGI [16] | TGI [17] | TGI [18] | TGI [19] |
| --- | --- | --- | --- | --- | --- | --- | --- | --- | --- | --- | --- | --- | --- | --- | --- | --- | --- | --- | --- |
| CCOP(=O)(OCC)C1CC(O)C(=O)N1 (stereo not drawn) | > 100 µM | > 100 µM | > 100 µM | > 100 µM | > 100 µM | > 100 µM | > 100 µM | > 100 µM | > 100 µM | > 100 µM | > 100 µM | > 100 µM | > 100 µM | > 100 µM | > 100 µM | > 100 µM |  |  |  |
| O=C(/C=C/c1ccccc1)/C=N/N1C(=S)N(c2ccccc2)C(=Nc2ccccc2)C1=Nc1ccccc1 |  | > 100 µM | > 100 µM | > 100 µM | > 100 µM | > 100 µM | > 100 µM | > 100 µM |  | > 100 µM | > 100 µM |  | > 100 µM | > 100 µM | > 100 µM | > 100 µM | > 100 µM | > 100 µM |  |
| COc1cc(/C=C/C(=O)c2ccc(NS(=O)(=O)c3cc([N+](=O)[O-])ccc3C)cc2)cc(OC)c1OC |  | 30.4 µM | 13.4 µM | 6.21 µM | 7.39 µM | 14.9 µM | 13.9 µM | 11.4 µM | 13.5 µM | 8.47 µM | 9.72 µM | 9.36 µM | 15.4 µM | 17.1 µM |  | 13 µM | 14.4 µM |  | 11.1 µM |
| COc1cccc(N=Cc2cc3cc(Br)ccc3nc2Cl)c1 |  | > 50 µM | > 50 µM | 41.6 µM |  | > 50 µM |  | > 50 µM | 2.63 µM | > 50 µM |  | > 50 µM | > 50 µM | > 50 µM | > 50 µM | > 50 µM | > 50 µM | > 50 µM | > 50 µM |
| O=C(CCC(NC(=O)OCc1ccccc1)C(=O)OCc1ccccc1)Nc1ccc(OCc2ccccc2)cc1 (stereo not drawn) | > 10 µM | > 10 µM | 26.3 µM | > 10 µM | 25.6 µM | > 31.6 µM | > 31.6 µM | > 100 µM | > 31.6 µM | > 10 µM | 19.9 µM | > 31.6 µM | > 31.6 µM | > 31.6 µM | > 31.6 µM |  | > 10 µM | > 31.6 µM | > 31.6 µM |
| O=C(c1cccc2ccccc12)C1(Br)S(=O)(=O)OCCOS1(=O)=O |  | > 100 µM | > 100 µM | > 100 µM | > 100 µM | > 100 µM | > 100 µM | > 100 µM | > 100 µM | > 100 µM | > 100 µM | > 100 µM |  |  |  | > 100 µM | > 100 µM | > 100 µM | > 100 µM |
| NC(=O)N/N=C1\CCCCc2ccccc21 |  | > 10 µM | > 10 µM | > 10 µM | > 10 µM | > 10 µM | > 10 µM | > 10 µM | > 10 µM | > 10 µM | > 10 µM |  |  |  | > 10 µM | > 10 µM | > 10 µM | > 10 µM |  |
| N=c1oc2cc(O)ccc2cc1C(=O)NCc1ccccc1 |  | > 100 µM | > 100 µM | 39.9 µM | 65.5 µM | 25.4 µM | > 100 µM | > 100 µM | > 100 µM | 34.2 µM | > 100 µM | > 100 µM | 70 µM | > 100 µM | 76.3 µM | 49.7 µM | 71.1 µM |  |  |
| COC(O)C(=O)c1c2c(cc3c1CC1(Cc4cc5c(cc4C1)CCC5)C3)CCC2 (stereo not drawn) | 31.8 µM | 35.8 µM | 39.8 µM | 30 µM | 29.2 µM |  | 32.1 µM | 30.2 µM | 33.9 µM | 32.1 µM | 33.9 µM | 22.8 µM | 31.8 µM | 26 µM | 36.1 µM |  |  | 42.8 µM | 44.3 µM |
| CC(=O)N1C(c2[nH]c3ccccc3c2-c2ccccc2)CCN1c1ccccc1 (stereo not drawn) |  | > 10 µM | > 10 µM | > 10 µM | > 10 µM | > 10 µM | > 10 µM | > 10 µM | > 10 µM | > 10 µM | > 10 µM | > 10 µM | > 10 µM | > 10 µM | > 10 µM | > 10 µM | > 10 µM | > 10 µM | > 10 µM |
| COC(=O)c1ccccc1CC1Cc2ccc3c(c2C1=O)CCC3 (stereo not drawn) |  | > 100 µM | > 100 µM | > 100 µM | > 100 µM | > 100 µM | > 100 µM | > 100 µM | > 100 µM | > 100 µM | 90.3 µM | > 100 µM | > 100 µM | > 100 µM | > 100 µM | > 100 µM | > 100 µM | > 100 µM | 84.8 µM |
| O=[N+]([O-])c1ccc(-c2nnc(C34CC5CC(CC(C5)C3)C4)o2)cc1 | > 100 µM | > 100 µM | > 100 µM | > 100 µM | > 100 µM | > 100 µM | > 100 µM | > 100 µM | > 100 µM | > 100 µM |  | > 100 µM | > 100 µM | > 100 µM | > 100 µM | > 100 µM |  | > 100 µM | > 100 µM |
| CCOC(=O)c1c(N2CCCC2)nsc1Nc1ccc(F)cc1 | > 100 µM | 46.8 µM | > 100 µM | > 100 µM | > 100 µM | > 100 µM | > 100 µM | > 100 µM | > 100 µM | 46.4 µM |  | > 100 µM | > 100 µM | > 100 µM | > 100 µM | > 100 µM |  | > 100 µM | 58.8 µM |
| c1ccc([P+](Cc2ccc(C[P+](c3ccccc3)(c3ccccc3)c3ccccc3)cc2)(c2ccccc2)c2ccccc2)cc1 | > 100 µM | > 100 µM | > 100 µM | > 100 µM | > 100 µM | > 100 µM | > 100 µM | > 100 µM | > 100 µM |  | > 100 µM | 50 µM | > 100 µM | > 100 µM | > 100 µM | > 100 µM |  | > 100 µM | > 100 µM |
